Experimental data as given in patent US20240335395A1, “COMPOSITIONS AND METHODS FOR PREVENTING AND/OR TREATING DISEASE ASSOCIATED WITH IL-23 EXPRESSION” (ALLSPIM, priority 2021, published 2024).

Columns and labels:
[1] = tested on: MSU-induced knee joint edema; assay: MSU-induced knee joint edema in mice; type: in vivo, mouse; settings: 20 h
Method: 2,4-D, isolated and purified from Chloranthus spicatus (purity≥98%), was purchased from BOC Science (Shirley, NY). Colchicine (CLC) (purity≥96%) and dexamethasone (DEX) (purity≥98%) were purchased from Sigma. Mice (six per group) were treated with 2,4-D (100 mg/kg or 20 mg/kg, i.p.), CLC (1 mg/kg or 0.2 mg/kg, i.p.), DEX (0.5 mg/kg or 0.1 mg/kg, i.p.), or vehicle (20% polyoxyethylenesorbitan monooleate (Tween 80) plus PBS) 30 min before intra-articular stimulus with MSU (100 μg/10 μL, i.a.). Six mice with intra-articular injection with PBS alone served as a negative control.
Preparation of monosodium urate crystal (MSU). MSU crystals were prepared as described previously (Ruiz-Miyazawa et al., 2017). Briefly, 800 mg of monosodium urate was dissolved in 155 ml of boiling milli-Q water containing 2N NaOH. After pH adjustment to 8.9, the solution was cooled gradually by stirring at room temperature and crystallized overnight at 4° C. Crystals were collected, and centrifuged at 3,000×g for 2 min at 4° C. The crystals were evaporated and sterilized by heating at 180° C. for 2 h and stored in a sterile environment until use. The load of endotoxin present in the MSU crystals was determined using a ToxinSensor^TM Single Test Kit (GenScript).
Induction of MSU-Induced Knee Joint Inflammation. Male ICR (CD-1) mice (35-45 g, 10-12 weeks) were purchased from VitalRiver Inc (Beijing, China) and were kept in an animal care facility under controlled temperature of 21±1° C., humidity, and on a light/dark cycle, with ad libitum access to water and standard laboratory chow diet. Animal care and handling procedures were approved by the Animal Ethics Committee of GZUCM (Guangzhou University of Chinese Medicine). All efforts were made to minimize animal suffering and to reduce the number of animals used. Joint inflammation was induced by the intra-articular (i.a.) administration of MSU (200 μg/20 μl) into the right and left knee joints of mice under inhaled 3% isoflurane anesthesia. Control animals received an injection (i.a.) of sterile PBS (20 μL).
Evaluation of Knee Joint Edema. Knee joint edema was determined with a caliper (Mitutoyo) before (zero time), and after the intra-articular injection with MSU at the times indicated. Knee joint edema was determined for each mouse by the difference between the time points indicated on figures and the zero time (Ruiz-Miyazawa et al, 2017). The edema value is represented as Amm/joint.
Statistical Analysis. Data were analyzed using GraphPad Prism statistical software (GraphPad Software, Inc., United States-500.288, version 5.0). Results are presented as means±SEM or SD of measurements made on 6 mice per group, with statistical significance determined by two-way ANOVA, comparing each group to the control (“Model”) group. For in vitro experiments, microassays were performed in quadruplicate. p<0.05 was considered significant (*p<0.05, **p<0.01, ***p<0.001).

[2] = tested on: IBA1 positive macrophage/microglia; assay: Laser-induced CNV in rats, IBA-1 positive macrophages on RPE-choroid flat-mounts; type: in vivo, rat; settings: intravitreous injection
Method: Animals. All experiments were performed in accordance with the European Communities Council Directive 86/609/EEC and approved by local ethical committees (#2541-2015110210279792 v3). Six- to eight-week-old male Long Evans rats from the Janvier Breeding Center (Le Genest-Saint-Isle, France) were used to create a rat model of choroidal neovascularization (CNV) used as a model of human wet macular degeneration. Laser-induced CNV. After anesthesia and dilation of the pupils, coverslips were positioned on the cornea as a contact glass. For rats, six or eight burns were performed 2 to 3 optic disc diameters away from the optic nerve with an Argon laser (532 nm) mounted on a slit lamp (175 mW, 0.1 s and 50 μm). Both eyes of animals received laser induction. The presence of a bubble witnessed the rupture of Bruch's membrane and confirmed a successful laser impact. Treatments. After laser photocoagulation, rats were divided into 3 treatment groups: —Intravitreous injection (IVT) of 2,4-D (identified as “new treatment”, New T), —IVT of vehicle (PBS), —IVT of triamcinolone acetonide (Kenacort® 40 mg/ml; TA) (n=12 rats per group). The IVT consisted of 5 μl injected with a 31G needle mounted on a micro-thin (100 μl) syringe posterior to the limbus, avoiding the lens. IVT was performed immediately after laser had been performed. […]

COc1cc(O)c(OC)c(O)c1C(=O)/C=C/c1ccccc1 [2,4-D, 2′,4′-dihydroxy-3′,6′-dimethoxychalcone]
reduction of MSU-induced knee joint edema ([1]; high dose i.p.: 2,4-D 100 mg/kg, CLC 1 mg/kg, DEX 0.5 mg/kg): 68.4% | reduction of MSU-induced knee joint edema ([1]; low dose i.p.: 2,4-D 20 mg/kg, DEX 0.1 mg/kg): 45.3% | number of infiltrating IBA-1 positive macrophages in CNV [2]: important reduction
